Data set [1] in a line: Cytotoxicity against human MCF-10A cells assessed as reduction in cell viability incubated for 72 hrs by MTT assay. Format: toxicity, cell-based. In general terms: Formazan colour is commonly taken as a measure of viable cells.
Data set [2] concerns RD. The data set can be described thus: Downregulation of H3K79me3 expression in human RD cells at 5 uM incubated for 6 days by immunoblotting analysis. Conditions: time 6.0 day. Type of data set: functional, cell-based.
The nature of data set [3]: Toxicity in BALB/c nude mouse xenografted with human RD cells assessed as effect on heart viscera index at 10 to 20 mg/kg, ip administered for 5 consecutive days followed by 2 rest days for 3 weeks. Type of data set: organism-based. Conditions: in vivo, 504 h, dose 10-20 mg/kg. For orientation: Xenograft models place foreign cells or tissue in a host animal.
Data set [4] concerns RD. Description: Downregulation of H3K27me3 expression in human RD cells at 5 uM incubated for 6 days by Western blotting analysis. Format: functional, cell-based. Conditions: time 6.0 day. Background: A western blot detects proteins with antibodies after separation by electrophoresis.
For data set [5], the target named is T1, Histone-lysine N-methyltransferase EHMT2 (Homo sapiens) (UniProt Q96KQ7).
T1 sequence (whole entry): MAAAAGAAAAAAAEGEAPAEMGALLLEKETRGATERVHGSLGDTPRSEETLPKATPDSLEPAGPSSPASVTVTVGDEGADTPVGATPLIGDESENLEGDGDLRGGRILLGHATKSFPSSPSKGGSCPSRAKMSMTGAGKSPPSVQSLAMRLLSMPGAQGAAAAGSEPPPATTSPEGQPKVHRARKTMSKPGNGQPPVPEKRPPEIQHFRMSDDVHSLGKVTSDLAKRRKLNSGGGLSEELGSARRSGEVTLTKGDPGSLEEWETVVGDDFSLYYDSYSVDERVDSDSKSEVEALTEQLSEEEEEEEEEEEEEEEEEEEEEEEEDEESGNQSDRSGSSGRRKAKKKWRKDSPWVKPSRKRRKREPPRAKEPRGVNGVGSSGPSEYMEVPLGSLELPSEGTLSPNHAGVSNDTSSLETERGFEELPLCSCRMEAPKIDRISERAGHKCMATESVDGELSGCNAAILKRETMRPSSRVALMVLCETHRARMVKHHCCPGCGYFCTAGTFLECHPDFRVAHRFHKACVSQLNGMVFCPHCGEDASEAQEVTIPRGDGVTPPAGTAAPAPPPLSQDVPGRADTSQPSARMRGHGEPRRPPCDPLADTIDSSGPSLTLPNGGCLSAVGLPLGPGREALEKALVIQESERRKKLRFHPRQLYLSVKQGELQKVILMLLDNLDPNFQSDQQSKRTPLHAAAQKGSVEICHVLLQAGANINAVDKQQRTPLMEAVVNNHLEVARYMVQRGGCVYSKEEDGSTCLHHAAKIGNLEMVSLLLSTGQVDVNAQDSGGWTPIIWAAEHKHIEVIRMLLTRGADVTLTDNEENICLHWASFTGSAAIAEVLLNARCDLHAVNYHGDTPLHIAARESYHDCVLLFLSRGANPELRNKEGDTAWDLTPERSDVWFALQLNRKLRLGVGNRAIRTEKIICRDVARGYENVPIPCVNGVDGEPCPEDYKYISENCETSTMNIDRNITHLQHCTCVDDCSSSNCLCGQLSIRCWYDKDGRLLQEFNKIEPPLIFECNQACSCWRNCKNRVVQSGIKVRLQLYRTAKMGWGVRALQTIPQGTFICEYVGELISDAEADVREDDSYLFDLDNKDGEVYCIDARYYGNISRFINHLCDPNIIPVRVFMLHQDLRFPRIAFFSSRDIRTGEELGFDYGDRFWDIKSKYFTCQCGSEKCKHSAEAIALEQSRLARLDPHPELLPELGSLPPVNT
Description: Inhibition of human recombinant EHMT2 G9a using SAM as substrate at 10 uM by time-resolved fluorescence assay relative to control.

The nature of data set [6]: Toxicity in BALB/c nude mouse xenografted with human RD cells assessed as effect on liver viscera index at 10 to 20 mg/kg, ip administered for 5 consecutive days followed by 2 rest days for 3 weeks. Conditions: in vivo, 504 h, dose 10-20 mg/kg. Format: organism-based.
For data set [7], the target named is T2, Histone-lysine N-methyltransferase EHMT2 (Homo sapiens, UniProt Q96KQ7).
T2 sequence (Q96KQ7 whole entry): T1 sequence (whole entry)
Description: Inhibition of human recombinant EHMT2 G9a using SAM as substrate incubated for 1 hr by microplate luminescence based HMT assay.

For data set [8], the target named is Histone-lysine N-methyltransferase SETD2 (Homo sapiens) (UniProt Q9BYW2). The data set can be described thus: Inhibition of SETD2 (unknown origin) using SAM as substrate at 10 uM by time-resolved fluorescence assay relative to control.
In data set [9] the target is Histone-lysine N-methyltransferase, H3 lysine-79 specific (Homo sapiens) (UniProt Q8TEK3). Description: Binding affinity to DOT1L in human RD cells assessed as increase in protein thermal stability at 5 uM incubated for 4 hrs by CETSA based Western blot analysis. Format: cell-based.
The nature of data set [10]: Clearance in Sprague-Dawley rat at 10 mg/kg, iv administered for 12 hrs by HPLC analysis. Conditions: in vivo. Type of data set: ADME, organism-based.
Data set [11] is described as follows: Plasma protein binding in Kunming mouse by equilibrium dialysis method. Type of data set: ADME, cell-free. Conditions: read-out: PPB (converted).

One compound from ChEMBL document CHEMBL5338739, “Discovery of Dual Lysine Methyltransferase G9a and EZH2 Inhibitors with In Vivo Efficacy against Malignant Rhabdoid Tumor” (J Med Chem, 2023) can be followed below.

Structures are written as SMILES. Activity calls are given as the source filed them. The calls are words filed in the database; no cut-off is given here.

In general, CC50 refers to the concentration giving 50% cytotoxicity. Usually inhibition stands for the change of the read-out against control, counted positive when it falls. Broadly, the IC50 is the concentration that inhibits the measured activity by half.

Chain of Histone-lysine N-methyltransferase, H3 lysine-79 specific (Homo sapiens) (Q8TEK3 whole entry, looked up): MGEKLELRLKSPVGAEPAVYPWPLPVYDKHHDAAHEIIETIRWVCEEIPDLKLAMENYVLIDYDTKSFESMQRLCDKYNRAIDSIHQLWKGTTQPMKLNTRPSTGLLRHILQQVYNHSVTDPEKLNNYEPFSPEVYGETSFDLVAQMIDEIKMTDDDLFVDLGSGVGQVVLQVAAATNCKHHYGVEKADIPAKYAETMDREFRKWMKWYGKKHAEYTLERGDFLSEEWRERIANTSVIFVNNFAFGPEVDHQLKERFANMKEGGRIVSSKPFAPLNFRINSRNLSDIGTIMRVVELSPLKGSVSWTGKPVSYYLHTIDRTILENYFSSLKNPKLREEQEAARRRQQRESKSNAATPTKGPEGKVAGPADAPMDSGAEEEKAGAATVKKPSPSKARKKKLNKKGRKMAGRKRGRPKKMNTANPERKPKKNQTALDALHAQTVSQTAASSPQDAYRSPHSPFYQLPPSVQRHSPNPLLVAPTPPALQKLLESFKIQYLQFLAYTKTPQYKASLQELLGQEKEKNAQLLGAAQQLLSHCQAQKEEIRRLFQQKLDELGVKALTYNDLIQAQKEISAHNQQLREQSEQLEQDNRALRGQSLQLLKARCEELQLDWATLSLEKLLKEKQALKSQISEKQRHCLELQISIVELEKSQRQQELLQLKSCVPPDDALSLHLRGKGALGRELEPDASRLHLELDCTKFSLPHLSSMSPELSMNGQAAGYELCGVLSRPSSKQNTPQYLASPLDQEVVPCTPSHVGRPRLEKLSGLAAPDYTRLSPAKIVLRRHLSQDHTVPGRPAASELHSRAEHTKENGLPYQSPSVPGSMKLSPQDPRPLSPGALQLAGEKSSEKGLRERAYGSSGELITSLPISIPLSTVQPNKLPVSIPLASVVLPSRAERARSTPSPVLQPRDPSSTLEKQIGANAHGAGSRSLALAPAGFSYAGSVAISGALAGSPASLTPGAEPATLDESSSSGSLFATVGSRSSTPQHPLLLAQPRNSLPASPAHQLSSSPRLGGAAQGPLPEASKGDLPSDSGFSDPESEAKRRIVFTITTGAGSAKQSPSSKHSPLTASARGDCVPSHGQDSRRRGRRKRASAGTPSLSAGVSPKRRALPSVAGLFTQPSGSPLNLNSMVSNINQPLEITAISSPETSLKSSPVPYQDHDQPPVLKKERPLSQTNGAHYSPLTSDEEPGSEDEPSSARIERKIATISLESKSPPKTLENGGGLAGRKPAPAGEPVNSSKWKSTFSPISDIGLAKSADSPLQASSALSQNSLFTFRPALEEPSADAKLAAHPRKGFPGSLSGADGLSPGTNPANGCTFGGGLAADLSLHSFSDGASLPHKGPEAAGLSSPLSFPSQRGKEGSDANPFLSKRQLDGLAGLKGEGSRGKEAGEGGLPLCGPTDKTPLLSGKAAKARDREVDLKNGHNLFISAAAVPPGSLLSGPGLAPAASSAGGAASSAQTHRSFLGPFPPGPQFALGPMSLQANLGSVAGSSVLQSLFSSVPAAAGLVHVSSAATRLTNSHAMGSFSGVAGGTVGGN
Chain of Histone-lysine N-methyltransferase SETD2 (Homo sapiens) (Q9BYW2 whole entry): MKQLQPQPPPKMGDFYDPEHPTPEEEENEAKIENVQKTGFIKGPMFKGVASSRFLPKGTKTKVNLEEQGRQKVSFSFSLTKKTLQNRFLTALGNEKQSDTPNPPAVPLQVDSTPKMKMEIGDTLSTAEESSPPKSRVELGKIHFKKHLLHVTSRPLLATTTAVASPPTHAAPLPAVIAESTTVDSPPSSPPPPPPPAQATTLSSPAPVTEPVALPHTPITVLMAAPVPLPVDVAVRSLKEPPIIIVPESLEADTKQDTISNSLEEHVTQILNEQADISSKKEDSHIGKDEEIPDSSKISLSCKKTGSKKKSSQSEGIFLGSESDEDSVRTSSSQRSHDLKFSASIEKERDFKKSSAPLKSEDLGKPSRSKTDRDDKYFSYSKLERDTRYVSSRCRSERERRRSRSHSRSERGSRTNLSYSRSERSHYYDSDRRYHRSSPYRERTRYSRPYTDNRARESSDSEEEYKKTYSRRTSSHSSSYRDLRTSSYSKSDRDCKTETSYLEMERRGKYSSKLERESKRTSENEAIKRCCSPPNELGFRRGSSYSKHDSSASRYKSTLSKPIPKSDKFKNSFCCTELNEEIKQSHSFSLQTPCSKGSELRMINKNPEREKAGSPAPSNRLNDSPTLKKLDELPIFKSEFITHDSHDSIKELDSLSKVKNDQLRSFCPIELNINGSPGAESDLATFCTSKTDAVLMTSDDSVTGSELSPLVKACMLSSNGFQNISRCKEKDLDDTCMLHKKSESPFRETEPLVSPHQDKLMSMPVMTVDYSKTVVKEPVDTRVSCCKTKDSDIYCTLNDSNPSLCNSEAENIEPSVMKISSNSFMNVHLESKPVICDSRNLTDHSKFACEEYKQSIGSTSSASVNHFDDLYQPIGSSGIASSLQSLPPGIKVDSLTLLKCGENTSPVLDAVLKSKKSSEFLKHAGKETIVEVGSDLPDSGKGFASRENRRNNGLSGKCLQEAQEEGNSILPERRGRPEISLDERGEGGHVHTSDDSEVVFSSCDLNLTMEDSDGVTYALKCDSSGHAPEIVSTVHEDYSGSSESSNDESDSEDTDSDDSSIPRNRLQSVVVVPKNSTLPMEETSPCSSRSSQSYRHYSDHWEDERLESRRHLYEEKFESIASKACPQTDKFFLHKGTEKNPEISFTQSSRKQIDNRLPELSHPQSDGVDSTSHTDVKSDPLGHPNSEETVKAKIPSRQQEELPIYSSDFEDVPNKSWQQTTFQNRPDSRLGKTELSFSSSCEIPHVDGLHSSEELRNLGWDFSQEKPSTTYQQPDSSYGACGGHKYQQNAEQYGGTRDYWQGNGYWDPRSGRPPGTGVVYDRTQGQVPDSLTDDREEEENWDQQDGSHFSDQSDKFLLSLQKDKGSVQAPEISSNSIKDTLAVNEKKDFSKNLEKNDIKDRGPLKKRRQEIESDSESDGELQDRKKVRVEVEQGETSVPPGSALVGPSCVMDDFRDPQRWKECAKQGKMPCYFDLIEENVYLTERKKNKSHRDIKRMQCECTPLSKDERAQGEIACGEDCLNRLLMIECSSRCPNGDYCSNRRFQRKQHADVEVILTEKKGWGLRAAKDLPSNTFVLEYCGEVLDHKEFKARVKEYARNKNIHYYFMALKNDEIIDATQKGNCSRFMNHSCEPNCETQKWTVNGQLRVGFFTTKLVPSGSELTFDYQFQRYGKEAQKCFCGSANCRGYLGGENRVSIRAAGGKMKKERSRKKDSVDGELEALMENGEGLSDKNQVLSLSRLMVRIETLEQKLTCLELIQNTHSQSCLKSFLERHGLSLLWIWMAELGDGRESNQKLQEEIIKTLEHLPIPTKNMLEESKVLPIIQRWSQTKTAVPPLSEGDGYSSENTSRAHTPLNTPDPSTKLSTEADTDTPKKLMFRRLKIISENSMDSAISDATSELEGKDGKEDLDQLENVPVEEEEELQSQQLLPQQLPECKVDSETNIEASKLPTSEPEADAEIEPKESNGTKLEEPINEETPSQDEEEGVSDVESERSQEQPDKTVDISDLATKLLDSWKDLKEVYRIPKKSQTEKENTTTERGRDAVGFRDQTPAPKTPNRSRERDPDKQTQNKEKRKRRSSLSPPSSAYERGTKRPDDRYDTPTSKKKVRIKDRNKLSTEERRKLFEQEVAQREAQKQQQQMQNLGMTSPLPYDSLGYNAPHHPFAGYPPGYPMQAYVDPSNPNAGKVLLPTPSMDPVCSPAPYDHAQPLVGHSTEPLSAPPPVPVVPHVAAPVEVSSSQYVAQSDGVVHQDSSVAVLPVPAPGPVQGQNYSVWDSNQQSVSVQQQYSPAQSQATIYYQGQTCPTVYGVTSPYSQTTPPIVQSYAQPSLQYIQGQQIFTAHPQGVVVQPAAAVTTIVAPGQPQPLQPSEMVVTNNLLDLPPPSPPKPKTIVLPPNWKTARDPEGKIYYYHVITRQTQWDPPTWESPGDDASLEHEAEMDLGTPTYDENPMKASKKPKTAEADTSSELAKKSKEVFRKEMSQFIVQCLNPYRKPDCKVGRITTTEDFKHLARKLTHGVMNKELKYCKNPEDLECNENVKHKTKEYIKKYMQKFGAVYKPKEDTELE

Turning to `COc1cc2c(NCc3c(C)cc(C)[nH]c3=O)nc(N3CCC(F)(F)CC3)nc2cc1OCCCN1CCCC1`, the 50% cytotoxic concentration (CC50) at 72 h in [1] is greater than 100000 nM. The result (in the data set with RD [2]; in data set [9]) was inactive. The Activity entry in data set [3] and in data set [6] was “Non-Toxic” throughout. For the same compound, in the data set with RD [4], the result was Active. In addition, the inhibition in [5] is 99.1%; in [8] it was -5.18%. Moreover, the half-inhibitory concentration (IC50) in data set [7] turned out to be 2.9 nM. In addition, the CL in data set [10] came out at 15.14 mL/min/kg. In data set [11], the fraction unbound was 0.186.
